Measurements reported in patent publication US20240209389A1, “PLANT HAVING ENHANCED RESISTANCE AGAINST COLORADO POTATO BEETLE AND METHOD FOR PRODUCING SAME, AND METHOD FOR EVALUATING RESISTANCE AGAINST COLORADO POTATO BEETLE IN PLANT” (KANEKA CORPORATION, priority 2020, published 2024).

Experiments:
S123ACT = experiment: Detection of in vitro enzyme activity of 23ACT (LC-MS of reaction product); format: biochemical, S. lycopersicum; details: 50 μM substrate, crude extraction fraction of E. coli expressing S123ACT, 400 μM acetyl CoA, pH 7.2
Experimental: (§1) First, in order to synthesize 23ACT in vitro, the S123ACT gene and the Sc23ACT gene were each linked to a pCold ProS2 (manufactured by Takara Bio Inc.), and were introduced into E. coli BL21 (DE3). The obtained recombinant E. coli was cultured at 37° C. until the OD600 value reached 0.5, was cooled to 15° C., and was left to stand for 30 minutes. IPTG was added thereto so that the final concentration reached 0.1 mM, and the mixture was cultured under shaking at 15° C. for 24 hours, to induce expression of the recombinant protein. Then, the E. coli bodies whose expression was induced were collected, and were suspended in a sonication buffer [50 mM Bis-Tris-HCl (pH 7.0), 150 mM NaCl, 1 mM dithiothreitol, 10% glycerol]. After an ultrasonic crushing machine was used to crush bacterial cells, the mixture was subjected to centrifugal separation, and crude extraction fractions were obtained from the supernatant. A 100 mM Bis-Tris-HCl solution (pH 7.2, containing 400 μM acetyl COA) containing a 50 μM substrate was added to the mixture, and was allowed to react.
(§2) The obtained reaction product was analyzed through LC-MS (manufactured by Waters, product name: UPLC-ESI-MS ACQUITY). As the column, ACQUITY HSS T3 (1.8 μm φ2.1×100 mm) (manufactured by Waters) was used. In LC analysis, gradient elution was performed using a mobile phase (A: 0.1% formic acid water and B: acetonitrile). The gradient elution was performed under the condition: 0 to 30 minutes, 90% A/10% B to 45% A/55% B; 30 to 31 minutes, 45% A/55% B to 100% B; and maintaining for from 31 to 35 minutes, 100% B.

Sc23ACT = experiment: as above; format: biochemical, S. chacoense; details: 50 μM substrate, crude extraction fraction of E. coli expressing Sc23ACT, 400 μM acetyl CoA, pH 7.2
Experimental: as §1, §2

St23ACT = experiment: Detection of in vitro enzyme activity of St23ACT (LC-MS of reaction product); format: biochemical, S. tuberosum; details: same method as Example 4, crude extraction fraction of E. coli expressing St23ACT
Experimental: as §1
The obtained reaction product was analyzed through LC-MS (manufactured by Waters, product name: UPLC-ESI-MS ACQUITY). As the column, ACQUITY HSS T3 (1.8 μm φ2.1×100 mm) (manufactured by Waters) was used. […]
The St23ACT gene identified in Example 12 was analyzed in the same method described in Example 4. […]

S123DOX = experiment: Detection of in vitro enzyme activity of 23DOX (LC-MS of reaction product); format: biochemical, S. lycopersicum; details: 50 μM substrate, crude extraction fraction of E. coli expressing S123DOX, 2-oxoglutaric acid, sodium ascorbate, FeSO4, pH 7.2
Experimental: (§3) First, in order to synthesize 23DOX in E. coli, the S123DOX gene and the Sc23DOX gene were each linked to a pCold ProS2 vector (manufactured by Takara Bio Inc.), and were introduced into E. coli BL21 (DE3). The obtained recombinant E. coli was cultured at 37° C. until the OD600 value reached 0.5, was cooled to 15° C., and was left to stand for 30 minutes. IPTG was added thereto so that the final concentration reached 0.1 mM, and the mixture was cultured under shaking at 15° C. for 24 hours, to induce expression of the recombinant protein.
(§4) Then, the E. coli bodies whose expression was induced were collected, and were suspended in a sonication buffer [50 mM Bis-Tris-HCl (pH 7.0), 150 mM NaCl, 1 mM dithiothreitol, 10% glycerol]. After an ultrasonic crushing machine was used to crush bacterial cells, the mixture was subjected to centrifugal separation, and crude extraction fractions were obtained from the supernatant. A 100 mM Bis-Tris-HCl solution (pH 7.2, containing 5 mM 2-oxoglutaric acid, 10 mM sodium ascorbate, and 200 μM FeSO4) containing a 50 μM substrate was added to the mixture, and was allowed to react.
(§5) The obtained reaction product was analyzed through LC-MS (manufactured by Waters, product name: UPLC-ESI-MS ACQUITY). As the column, ACQUITY HSS T3 1.8 μm φ 2.1×100 mm (manufactured by Waters) was used. […]

Sc23DOX = experiment: as above; format: biochemical, S. chacoense; details: 50 μM substrate, crude extraction fraction of E. coli expressing Sc23DOX, 2-oxoglutaric acid, sodium ascorbate, FeSO4, pH 7.2
Experimental: as §3, §4, §5

St23DOX = experiment: Detection of in vitro enzyme activity of St23DOX (LC-MS of reaction product); format: biochemical, S. tuberosum; details: same method as Example 3, crude extraction fraction of E. coli expressing St23DOX
Experimental: as §3, §4
The obtained reaction product was analyzed through LC-MS (manufactured by Waters, product name: UPLC-ESI-MS ACQUITY). […]
The St23DOX gene identified in Example 10 was analyzed in the same method described in Example 3. […]

Molecule	acetylation of the hydroxy group of position 23 of the substrate (reaction product) (S123ACT)	acetylation of the hydroxy group of position 23 of the substrate (reaction product) (Sc23ACT)	acetylation of the hydroxy group of position 23 of the substrate (reaction product) (St23ACT)	introduction of a hydroxy group to position 23 of the substrate (reaction product) (S123DOX)	introduction of a hydroxy group to position 23 of the substrate (reaction product) (Sc23DOX)	introduction of a hydroxy group to position 23 of the substrate (reaction product) (St23DOX)
C[C@H]1C[C@H](O)[C@@H]2[C@@H](C)[C@H]3[C@H](C[C@H]4[C@@H]5CC=C6C[C@@H](O[C@@H]7O[C@H](CO)[C@H](O)[C@H](O[C@@H]8O[C@H](CO)[C@@H](O)[C@H](O)[C@H]8O)[C@H]7O[C@@H]7O[C@@H](C)[C@H](O)[C@@H](O)[C@H]7O)CC[C@]6(C)[C@H]5CC[C@]34C)N2C1 [leptinine II, 3β-[(3-O-β-D-glucopyranosyl-2-O-α-L-rhamnopyranosyl-β-D-galactopyranosyl)oxy]solanid-5-en-23β-ol]	a new reaction product was not obtained	a new reaction product was not obtained	–	–	–	–
CC1CC(O)C2C(C)C3C(CC4C5CC=C6CC(OC7OC(CO)C(OC8OC(C)C(O)C(O)C8O)C(O)C7OC7OC(C)C(O)C(O)C7O)CCC6(C)C5CCC43C)N2C1 [leptinine I, 3β-[2-O,4-O-bis(α-L-rhamnopyranosyl)-β-D-glucopyranosyloxy]solanid-5-en-23β-ol]	a new reaction product was not obtained	a new reaction product was not obtained	–	–	–	–
23 hydroxy tomatine	a product to which an acetoxy group was introduced at position 23 was obtained	a product to which an acetoxy group was introduced at position 23 was obtained	a product to which an acetoxy group was introduced at position 23 was obtained	–	–	–
C[C@H]1CC[C@]2(NC1)O[C@H]1C[C@H]3[C@@H]4CC[C@H]5C[C@@H](O[C@@H]6O[C@H](CO)[C@H](O[C@@H]7O[C@H](CO)[C@@H](O)[C@H](O[C@@H]8OC[C@@H](O)[C@H](O)[C@H]8O)[C@H]7O[C@@H]7O[C@H](CO)[C@@H](O)[C@H](O)[C@H]7O)[C@H](O)[C@H]6O)CC[C@]5(C)[C@H]4CC[C@]3(C)[C@H]1[C@@H]2C [α-tomatine]	–	–	–	a product to which a hydroxy group was introduced at position 23 was obtained	a product to which a hydroxy group was introduced at position 23 was obtained	a product to which a hydroxy group was introduced at position 23 can be obtained
C[C@H]1CC[C@@H]2[C@@H](C)[C@H]3[C@H](C[C@H]4[C@@H]5CC=C6C[C@@H](O[C@@H]7O[C@H](CO)[C@H](O)[C@H](O[C@@H]8O[C@H](CO)[C@@H](O)[C@H](O)[C@H]8O)[C@H]7O[C@@H]7O[C@@H](C)[C@H](O)[C@@H](O)[C@H]7O)CC[C@]6(C)[C@H]5CC[C@]34C)N2C1 [α-solanine]	–	–	–	a new reaction product was not obtained	a new reaction product was not obtained	–
